Where two headings read alike, the source gives them in different places.
Tests used:
[1] = humans, cited from earlier work
[2] = in vivo, cited from earlier work
[3] = Half-life, bioavailability and blood levels in humans; parameters: species or system human; conditions: in vivo
[4] = target: T1, Inositol Triphosphate (IP3) (Rattus norvegicus, UniProt P29994); assay: Inositol Triphosphate (IP3) Binding Assay; conditions: Rat cerebellar membranes, [3H]IP3 4.0 nM, read-out: Receptor Binding Activity Percent Inhibition Average (N = 2)
T1 construct: Rat cerebellar membranes; from tissue; host or cells: rat cerebellar membranes
Description: Tissue cultures were prepared using standard laboratory practice for the following tissues: human recombinant M1 clone, human recombinant M2 clone, guinea pig striatal membranes, rat cortical membranes, rat striatal membranes, rat forebrain membranes, bovine hippocampal membranes, guinea pig cerebellar membranes, rat kidney membranes, recombinant rat 5HT7 clone, and rat cerebellar membranes.
Inositol Triphosphate (IP3) Binding Assay
Rat cerebellar membranes
Radioligand: [^3 H]IP3 (10-30 Ci/mmol)
Final ligand concentration - [4.0 nM]
D-myo-inositol 1,4,5-triphosphate
Reactions are carried out in 50 mM TRIS-HCl (pH 8.3)
1 mM EDTA at 0° C. for 10 minutes. The reaction is
rapid vacuum filtration onto glass fiber filters.
onto the filters is determined and compared to control
order to ascertain any interactions of test compound with
inositol triphospate binding site.

Dopamine (D1 Central) = target: T2, Dopamine (D1 Central) (Rattus norvegicus, UniProt P18901); assay: Dopamine (D1 Central) Binding Assay; conditions: Rat striatal membranes, [3H]SCH 23390 0.5 nM
T2 construct: Rat striatal membranes; from tissue; host or cells: rat striatal membranes

[5] = intramuscular injections; wide range of doses; squirrel monkeys; cited from earlier work
nicotinic binding site = target: T3, nicotinic binding site (Rattus norvegicus, UniProt P09483+P12390); assay: biochemical; conditions: Rat cortical membranes, [3H]N-methylcarbamylcholine iodide 2.5 nM, read-out: Receptor Binding Activity Percent Inhibition Average (N = 2)
T3 construct: Rat cortical membranes; from tissue; host or cells: rat cortical membranes

[6] = target: T4, Human recombinant M1 clone (Homo sapiens, UniProt P11229); assay: biochemical; assay type: binding
T4 construct: expressed in transfected cells
T4 sequence (P11229 1-460): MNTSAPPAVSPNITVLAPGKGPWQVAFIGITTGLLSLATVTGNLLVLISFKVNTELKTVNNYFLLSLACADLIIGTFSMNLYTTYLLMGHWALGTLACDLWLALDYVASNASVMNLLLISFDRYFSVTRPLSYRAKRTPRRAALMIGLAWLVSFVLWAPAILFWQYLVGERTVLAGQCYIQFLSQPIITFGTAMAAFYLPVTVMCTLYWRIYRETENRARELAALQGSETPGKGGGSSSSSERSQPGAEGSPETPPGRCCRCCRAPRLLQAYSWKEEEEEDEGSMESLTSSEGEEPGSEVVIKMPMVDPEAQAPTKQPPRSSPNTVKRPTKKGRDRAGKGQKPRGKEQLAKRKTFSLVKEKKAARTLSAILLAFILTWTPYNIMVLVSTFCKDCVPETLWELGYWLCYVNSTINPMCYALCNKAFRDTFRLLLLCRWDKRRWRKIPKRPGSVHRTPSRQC

[7] = test system: Glutamic Acid Decarboxylase (GAD); assay: Glutamic Acid Decarboxylase (GAD) Enzyme Assay; assay type: biochemical; conditions: 10^-8 M; Rat corpus striatal membranes; [14C]L-Glutamic acid
Description: Radioimmunoassay studies were conducted with rat corpus striatal membranes using the following method.
Glutamic Acid Decarboxylase (GAD) Enzyme Assay
Rat corpus striatal membranes
Substrate: [^14 C]L-Glutamic acid (30-80 Ci/mmol)
Reactions are incubated in phosphate/mercapoethanol buffer
6.9) for 30 minutes at 37° C. The reaction is
stopped by the addition
of trichloroacetic acid and placement on ice. Radioactive
trapped in phenylethylamine/methanol and quantitated using
scintillation […] in order to ascertain any
of test compounds with the glutamic acid decarboxylase

[8] = cited from earlier work
GABA uptake site = target: T5, GABA uptake site (Rattus norvegicus, UniProt P23978); assay: biochemical; conditions: Rat cortical membranes, [3H]GABA 3.6 nM, read-out: Receptor Binding Activity Percent Inhibition Average (N = 2)
T5 construct: Rat cortical membranes; from tissue; host or cells: rat cortical membranes

[9] = target: T6, Benzodiazepine (Peripheral) (Rattus norvegicus, UniProt P16257); assay: Benzodiazepine (Peripheral) Binding Assay; conditions: read-out: Receptor Binding Activity Percent Inhibition Average (N = 2)
T6 construct: Rat kidney membranes; from tissue; host or cells: rat kidney membranes

Serotonin (5HT1) = Serotonin (5HT1) Binding Assay; conditions: Rat cortical membranes, [3H]Hydroxytryptamine binoxalate 3.0 nM
[10] = target: Glycine (Strychnine Insensitive) (Rattus norvegicus, UniProt P35439); assay: biochemical; assay type: binding; conditions: read-out: Receptor Binding Activity Percent Inhibition Average (N = 2)
Opiate (Delta) = target: T7, Opiate (Delta) (Rattus norvegicus, UniProt P33533); assay: Opiate (Delta) Binding Assay; conditions: read-out: Receptor Binding Activity Percent Inhibition Average (N = 2)
T7 construct: Rat forebrain membranes; from tissue; host or cells: rat forebrain membranes

[11] = read-out: Receptor Binding Activity Percent Inhibition Average (N = 2)

T2 sequence (P18901 whole entry): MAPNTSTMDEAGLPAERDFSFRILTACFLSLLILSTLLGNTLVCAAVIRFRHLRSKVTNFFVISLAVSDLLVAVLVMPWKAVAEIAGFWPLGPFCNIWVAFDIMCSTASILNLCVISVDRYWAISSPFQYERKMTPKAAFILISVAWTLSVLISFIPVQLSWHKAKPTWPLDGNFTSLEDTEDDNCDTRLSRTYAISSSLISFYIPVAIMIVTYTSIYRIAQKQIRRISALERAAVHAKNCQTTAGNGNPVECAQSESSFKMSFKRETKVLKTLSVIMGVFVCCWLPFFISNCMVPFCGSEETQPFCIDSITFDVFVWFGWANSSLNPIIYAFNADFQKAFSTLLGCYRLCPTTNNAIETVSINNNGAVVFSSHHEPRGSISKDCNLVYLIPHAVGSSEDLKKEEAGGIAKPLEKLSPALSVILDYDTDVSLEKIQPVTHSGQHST
T6 sequence (P16257 whole entry): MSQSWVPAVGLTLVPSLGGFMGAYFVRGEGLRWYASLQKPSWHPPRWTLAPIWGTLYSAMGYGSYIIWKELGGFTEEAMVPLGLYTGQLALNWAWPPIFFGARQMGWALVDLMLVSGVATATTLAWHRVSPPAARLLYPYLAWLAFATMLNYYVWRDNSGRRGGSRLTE
T3 sequence (P09483 31-630): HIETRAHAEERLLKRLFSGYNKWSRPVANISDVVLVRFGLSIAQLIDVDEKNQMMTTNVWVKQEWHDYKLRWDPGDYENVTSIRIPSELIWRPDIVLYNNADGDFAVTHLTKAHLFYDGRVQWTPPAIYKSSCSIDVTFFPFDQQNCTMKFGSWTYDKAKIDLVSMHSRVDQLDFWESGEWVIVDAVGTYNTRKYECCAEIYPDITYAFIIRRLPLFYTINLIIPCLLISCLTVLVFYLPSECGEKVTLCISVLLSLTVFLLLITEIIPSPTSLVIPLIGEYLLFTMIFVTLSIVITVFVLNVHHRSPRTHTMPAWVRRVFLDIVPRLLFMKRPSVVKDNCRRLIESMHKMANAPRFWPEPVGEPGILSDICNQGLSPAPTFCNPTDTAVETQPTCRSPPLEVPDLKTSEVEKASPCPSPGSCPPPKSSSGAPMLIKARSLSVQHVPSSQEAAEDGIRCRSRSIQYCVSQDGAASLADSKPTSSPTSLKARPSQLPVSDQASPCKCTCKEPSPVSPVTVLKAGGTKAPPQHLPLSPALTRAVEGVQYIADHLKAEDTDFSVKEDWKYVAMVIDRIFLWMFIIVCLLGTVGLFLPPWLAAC
T3 sequence (P12390 25-500): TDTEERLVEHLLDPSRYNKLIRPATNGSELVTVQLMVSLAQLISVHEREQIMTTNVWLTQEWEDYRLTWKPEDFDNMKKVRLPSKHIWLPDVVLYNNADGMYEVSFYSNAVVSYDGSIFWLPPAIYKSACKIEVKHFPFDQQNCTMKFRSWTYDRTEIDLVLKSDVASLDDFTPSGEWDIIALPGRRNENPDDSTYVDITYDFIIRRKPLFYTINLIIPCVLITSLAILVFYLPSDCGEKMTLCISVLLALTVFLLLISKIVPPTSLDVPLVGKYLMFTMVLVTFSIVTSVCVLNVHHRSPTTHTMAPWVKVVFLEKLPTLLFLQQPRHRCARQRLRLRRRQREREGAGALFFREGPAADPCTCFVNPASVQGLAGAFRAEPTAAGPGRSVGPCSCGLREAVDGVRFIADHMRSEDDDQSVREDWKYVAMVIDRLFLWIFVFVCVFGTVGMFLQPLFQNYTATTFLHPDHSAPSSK
T1 sequence (P29994 whole entry): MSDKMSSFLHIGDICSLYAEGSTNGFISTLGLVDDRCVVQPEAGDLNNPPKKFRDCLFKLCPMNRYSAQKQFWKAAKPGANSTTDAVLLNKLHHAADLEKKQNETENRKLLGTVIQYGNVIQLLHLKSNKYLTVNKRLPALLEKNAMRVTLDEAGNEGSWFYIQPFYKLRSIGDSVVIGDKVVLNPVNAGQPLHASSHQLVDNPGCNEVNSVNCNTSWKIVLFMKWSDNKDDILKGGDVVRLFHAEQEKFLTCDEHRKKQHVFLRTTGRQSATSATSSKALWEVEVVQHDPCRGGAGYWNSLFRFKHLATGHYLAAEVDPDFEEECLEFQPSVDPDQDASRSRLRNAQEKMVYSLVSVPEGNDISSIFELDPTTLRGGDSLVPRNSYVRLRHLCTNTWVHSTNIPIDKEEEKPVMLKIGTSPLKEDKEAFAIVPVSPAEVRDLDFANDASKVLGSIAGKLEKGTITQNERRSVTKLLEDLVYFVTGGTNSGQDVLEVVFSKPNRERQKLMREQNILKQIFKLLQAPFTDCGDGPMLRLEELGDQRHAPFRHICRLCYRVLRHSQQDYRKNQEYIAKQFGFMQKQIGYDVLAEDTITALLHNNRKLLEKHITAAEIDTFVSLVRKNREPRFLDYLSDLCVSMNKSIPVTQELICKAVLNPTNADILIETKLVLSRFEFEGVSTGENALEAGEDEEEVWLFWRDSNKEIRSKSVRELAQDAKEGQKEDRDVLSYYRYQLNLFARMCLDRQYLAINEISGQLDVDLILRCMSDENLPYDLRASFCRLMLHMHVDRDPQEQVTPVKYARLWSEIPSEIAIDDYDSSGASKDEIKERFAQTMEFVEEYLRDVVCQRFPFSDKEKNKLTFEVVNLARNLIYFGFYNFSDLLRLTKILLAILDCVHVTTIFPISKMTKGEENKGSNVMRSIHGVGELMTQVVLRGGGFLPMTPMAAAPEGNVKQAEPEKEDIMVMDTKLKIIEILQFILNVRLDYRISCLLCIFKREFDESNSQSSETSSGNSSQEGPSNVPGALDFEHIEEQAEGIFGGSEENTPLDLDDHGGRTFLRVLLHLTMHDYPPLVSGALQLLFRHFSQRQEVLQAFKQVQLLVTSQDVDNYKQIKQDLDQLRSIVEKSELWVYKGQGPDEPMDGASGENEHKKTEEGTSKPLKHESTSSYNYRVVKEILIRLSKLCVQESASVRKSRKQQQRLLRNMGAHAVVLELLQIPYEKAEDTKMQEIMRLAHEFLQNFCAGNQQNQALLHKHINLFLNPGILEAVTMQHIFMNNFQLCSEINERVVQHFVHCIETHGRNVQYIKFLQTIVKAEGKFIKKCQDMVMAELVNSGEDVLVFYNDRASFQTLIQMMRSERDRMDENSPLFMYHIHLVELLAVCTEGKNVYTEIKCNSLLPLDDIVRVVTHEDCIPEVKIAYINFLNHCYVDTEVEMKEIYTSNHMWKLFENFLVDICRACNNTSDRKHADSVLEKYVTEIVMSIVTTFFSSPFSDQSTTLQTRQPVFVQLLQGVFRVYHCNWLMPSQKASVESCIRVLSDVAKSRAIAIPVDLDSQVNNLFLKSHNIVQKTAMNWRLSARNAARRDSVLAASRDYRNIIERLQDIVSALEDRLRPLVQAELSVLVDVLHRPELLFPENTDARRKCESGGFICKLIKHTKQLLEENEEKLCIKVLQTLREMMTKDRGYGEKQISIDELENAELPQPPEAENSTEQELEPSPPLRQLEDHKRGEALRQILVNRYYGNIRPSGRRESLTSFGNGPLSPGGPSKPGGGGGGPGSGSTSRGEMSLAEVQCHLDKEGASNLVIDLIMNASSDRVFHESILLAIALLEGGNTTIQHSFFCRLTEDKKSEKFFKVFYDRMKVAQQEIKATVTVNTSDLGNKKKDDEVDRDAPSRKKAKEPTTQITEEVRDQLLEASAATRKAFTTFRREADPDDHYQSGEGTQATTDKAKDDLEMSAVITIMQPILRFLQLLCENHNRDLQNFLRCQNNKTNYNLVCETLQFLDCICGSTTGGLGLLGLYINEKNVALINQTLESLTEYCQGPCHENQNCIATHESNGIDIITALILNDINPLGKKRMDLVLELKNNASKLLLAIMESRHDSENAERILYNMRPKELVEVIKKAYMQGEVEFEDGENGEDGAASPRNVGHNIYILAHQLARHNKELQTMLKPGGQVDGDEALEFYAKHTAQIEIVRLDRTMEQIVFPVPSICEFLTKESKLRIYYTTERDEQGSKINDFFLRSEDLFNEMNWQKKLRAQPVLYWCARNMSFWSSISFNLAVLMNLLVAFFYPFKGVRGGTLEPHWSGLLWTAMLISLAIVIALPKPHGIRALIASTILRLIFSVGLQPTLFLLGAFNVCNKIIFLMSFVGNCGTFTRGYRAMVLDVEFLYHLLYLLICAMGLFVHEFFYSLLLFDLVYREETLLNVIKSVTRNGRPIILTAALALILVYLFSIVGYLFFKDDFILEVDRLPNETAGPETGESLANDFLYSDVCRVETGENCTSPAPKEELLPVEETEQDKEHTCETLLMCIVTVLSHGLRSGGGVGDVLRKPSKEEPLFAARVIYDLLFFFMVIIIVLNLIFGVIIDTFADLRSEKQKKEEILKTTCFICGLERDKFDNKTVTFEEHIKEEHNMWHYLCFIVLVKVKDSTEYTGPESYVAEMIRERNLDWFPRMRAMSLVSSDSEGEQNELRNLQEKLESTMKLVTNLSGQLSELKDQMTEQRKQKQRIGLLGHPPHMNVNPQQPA

For `CN1C(=O)CCC1c1cccnc1` (single isomer, unassigned) [Cotinine, 1-methyl-5-(3-pyridinyl)-2-pyrrolidionone], the cardiovascular changes ([1]; intravenous infusion over 60 minutes) is given as “no cardiovascular changes”, the “subjective ratings of desire to smoke, irritability, low energy and anxiety/tension” value ([1]; intravenous infusion over 60 minutes, comparable to placebo-induced changes) is given as “significant decreases” and the subjective ratings ([1]; rapid infusion over 5 minutes) is given as “no significant changes”. For the same compound, the “passage of the blood-brain barrier” value [2] was “pass the blood-brain barrier”, the “passage of the blood-brain barrier” value ([2]; listed as cotinine) was “capable of passing the blood-brain barrier” and the “duration of effectiveness relative to nicotine, due to greater half-life” value [3] was “about eight”. For the same compound, the inhibition at 100 µM ([4]; 10^-4 M) was 8.3%, the inhibition at 1 µM ([4]; 10^-6 M) was 4.8% and the “Receptor Binding Activity Percent Inhibition Average (N = 2)” value (Dopamine (D1 Central); 10^-4 M) was 3.3%. The “Receptor Binding Activity Percent Inhibition Average (N = 2)” value (Dopamine (D1 Central); 10^-6 M) was 2.9%, the “rates of responding on fixed interval schedules of reinforcement” value [5] was “increased rates of responding” and the inhibition at 100 µM (nicotinic binding site; 10^-4 M) was 12%. The inhibition at 1 µM (nicotinic binding site; 10^-6 M) was 78.5%, the “effectiveness in binding relative to an equal concentration of nicotine, binding expressed as percent inhibition” value [6] was “about 19 times” and the inhibition at 1 µM [6, 11] was 15.5%. The inhibition at 100 µM [6, 11] was 19.5%, the “Percent Inhibition” value [7] was 38% and the “amount present in the blood without producing deleterious effects” value ([8]; humans) was ~18,000 ng/ml. The “effect on the cardiovascular system” value ([8]; in vivo) was “minimal effect”, the “harm at very high doses” value ([8]; many species, including man) was “has not been reported to be harmful” and the inhibition at 100 µM (GABA uptake site; 10^-4 M) was 7.4%. For the same compound, the inhibition at 1 µM (GABA uptake site; 10^-6 M) was 13.9%, the inhibition at 1 µM [9] was 8.5% and the inhibition at 100 µM [9] was 1.4%. The “Receptor Binding Activity Percent Inhibition Average (N = 2)” value (Serotonin (5HT1); 10^-4 M) was -0.8%, the “Receptor Binding Activity Percent Inhibition Average (N = 2)” value (Serotonin (5HT1); 10^-6 M) was 10.9% and the inhibition at 1 µM [10] was 10.9%. For the same compound, the inhibition at 100 µM [10] was -0.6%, the inhibition at 1 µM (Opiate (Delta)) was 8.3% and the inhibition at 100 µM (Opiate (Delta)) was 10%.
